Data reported in ChEMBL document CHEMBL2413072, “Synthesis and in vitro anticancer studies of novel C-2 arylidene congeners of lantadenes” (2013).
The source made the active and inactive calls. The rule behind the calls is not given here.

How the values were obtained:
Type in all cases: functional
[1] = system: MOLT-4; assay: Growth inhibition of human MOLT4 cells assessed as growth inhibition at 10 uM by sulforhodamine B assay; details: read-out: GI
[2] = system: HOP-92; assay: Growth inhibition of human HOP92 cells assessed as cell growth at 10 uM by sulforhodamine B assay; details: read-out: Activity
[3] = system: K562; assay: Growth inhibition of human K562 cells assessed as cell growth at 10 uM by sulforhodamine B assay; details: read-out: Activity
[4] = system: NCI-H522; assay: Growth inhibition of human NCI-H522 cells assessed as cell growth at 10 uM by sulforhodamine B assay; details: read-out: Activity
[5] = system: SK-OV-3; assay: Growth inhibition of human SKOV3 cells assessed as cell growth at 10 uM by sulforhodamine B assay; details: read-out: Activity
[6] = system: IGROV-1; assay: Growth inhibition of human IGROV1 cells assessed as cell growth at 10 uM by sulforhodamine B assay; details: read-out: Activity
[7] = system: HT-29; assay: Growth inhibition of human HT-29 cells assessed as cell growth at 10 uM by sulforhodamine B assay; details: read-out: Activity
[8] = system: 786-0; assay: Growth inhibition of human 786-0 cells assessed as growth inhibition at 10 uM by sulforhodamine B assay
[9] = system: BT-549; assay: Growth inhibition of human BT549 cells assessed as growth inhibition at 10 uM by sulforhodamine B assay; details: read-out: GI
[10] = system: SK-MEL-5; assay: Growth inhibition of human SK-MEL-5 cells assessed as cell growth at 10 uM by sulforhodamine B assay; details: read-out: Activity
[11] = system: SN12C; assay: Growth inhibition of human SN12C cells assessed as cell growth at 10 uM by sulforhodamine B assay; details: read-out: Activity
[12] = system: SK-MEL-28; assay: Growth inhibition of human SK-MEL-28 cells assessed as cell growth at 10 uM by sulforhodamine B assay; details: read-out: Activity
[13] = system: M14; assay: Growth inhibition of human M14 cells assessed as cell growth at 10 uM by sulforhodamine B assay; details: read-out: Activity
[14] = system: MOLT-4; assay: Growth inhibition of human MOLT4 cells assessed as cell growth at 10 uM by sulforhodamine B assay; details: read-out: Activity
[15] = system: MDA-MB-231; assay: Growth inhibition of human MDA-MB-231 cells assessed as cell growth at 10 uM by sulforhodamine B assay; details: read-out: Activity
[16] = system: NCI-H460; assay: Growth inhibition of human NCI-H460 cells assessed as cell growth at 10 uM by sulforhodamine B assay; details: read-out: Activity
[17] = system: MDA-MB-231; assay: Growth inhibition of human MDA-MB-231 cells assessed as growth inhibition at 10 uM by sulforhodamine B assay; details: read-out: GI
[18] = system: SNB-19; assay: Growth inhibition of human SNB19 cells assessed as cell growth at 10 uM by sulforhodamine B assay; details: read-out: Activity
[19] = system: A498; assay: Growth inhibition of human A498 cells assessed as cell growth at 10 uM by sulforhodamine B assay; details: read-out: Activity
[20] = system: OVCAR-8; assay: Growth inhibition of human OVCAR8 cells assessed as growth inhibition at 10 uM by sulforhodamine B assay; details: read-out: GI
[21] = system: COLO 205; assay: Growth inhibition of human COLO205 cells assessed as cell growth at 10 uM by sulforhodamine B assay; details: read-out: Activity
[22] = system: CCRF-CEM; assay: Growth inhibition of human CCRF-CEM cells assessed as growth inhibition at 10 uM by sulforhodamine B assay; details: read-out: GI
[23] = system: ACHN; assay: Growth inhibition of human ACHN cells assessed as growth inhibition at 10 uM by sulforhodamine B assay; details: read-out: GI
[24] = system: SR; assay: Growth inhibition of human SR cells assessed as growth inhibition at 10 uM by sulforhodamine B assay; details: read-out: GI
[25] = Growth inhibition of human NCI-ADR-RES cells assessed as growth inhibition at 10 uM by sulforhodamine B assay; details: read-out: GI
[26] = system: HOP-62; assay: Growth inhibition of human HOP62 cells assessed as cell growth at 10 uM by sulforhodamine B assay; details: read-out: Activity
[27] = system: SF-295; assay: Growth inhibition of human SF295 cells assessed as growth inhibition at 10 uM by sulforhodamine B assay
[28] = system: HOP-62; assay: Growth inhibition of human HOP62 cells assessed as growth inhibition at 10 uM by sulforhodamine B assay; details: read-out: GI
[29] = system: CAKI-1; assay: Growth inhibition of human CAKI-1 cells assessed as growth inhibition at 10 uM by sulforhodamine B assay; details: read-out: GI
[30] = system: NCI-H226; assay: Growth inhibition of human NCI-H226 cells assessed as cell growth at 10 uM by sulforhodamine B assay; details: read-out: Activity
[31] = system: UO-31; assay: Growth inhibition of human UO31 cells assessed as cell growth at 10 uM by sulforhodamine B assay; details: read-out: Activity
[32] = system: ACHN; assay: Growth inhibition of human ACHN cells assessed as cell growth at 10 uM by sulforhodamine B assay; details: read-out: Activity
[33] = system: NCI-H322M; assay: Growth inhibition of human NCI-H322M cells assessed as growth inhibition at 10 uM by sulforhodamine B assay
[34] = system: LOX IMVI; assay: Growth inhibition of human LOXIMVI cells assessed as growth inhibition at 10 uM by sulforhodamine B assay; details: read-out: GI
[35] = system: Malme-3M; assay: Growth inhibition of human MALME-3M cells assessed as cell growth at 10 uM by sulforhodamine B assay; details: read-out: Activity
[36] = system: U-251; assay: Growth inhibition of human U251 cells assessed as cell growth at 10 uM by sulforhodamine B assay; details: read-out: Activity
[37] = system: MDA-MB-468; assay: Growth inhibition of human MDA-MB-468 cells assessed as cell growth at 10 uM by sulforhodamine B assay; details: read-out: Activity
[38] = system: OVCAR-5; assay: Growth inhibition of human OVCAR5 cells assessed as growth inhibition at 10 uM by sulforhodamine B assay; details: read-out: GI
[39] = system: MCF7; assay: Growth inhibition of human MCF7 cells assessed as growth inhibition at 10 uM by sulforhodamine B assay; details: read-out: GI
[40] = system: RPMI-8226; assay: Growth inhibition of human RPMI8226 cells assessed as growth inhibition at 10 uM by sulforhodamine B assay; details: read-out: GI
[41] = system: IGROV-1; assay: Growth inhibition of human IGROV1 cells assessed as growth inhibition at 10 uM by sulforhodamine B assay; details: read-out: GI
[42] = system: COLO 205; assay: Growth inhibition of human COLO205 cells assessed as growth inhibition at 10 uM by sulforhodamine B assay; details: read-out: GI
[43] = system: SK-MEL-2; assay: Growth inhibition of human SK-MEL-2 cells assessed as cell growth at 10 uM by sulforhodamine B assay; details: read-out: Activity
[44] = system: M14; assay: Growth inhibition of human M14 cells assessed as growth inhibition at 10 uM by sulforhodamine B assay; details: read-out: GI
[45] = system: A498; assay: Growth inhibition of human A498 cells assessed as growth inhibition at 10 uM by sulforhodamine B assay
[46] = system: NCI-H23; assay: Growth inhibition of human NCI-H23 cells assessed as cell growth at 10 uM by sulforhodamine B assay; details: read-out: Activity
[47] = system: HCT-15; assay: Growth inhibition of human HCT15 cells assessed as growth inhibition at 10 uM by sulforhodamine B assay; details: read-out: GI
[48] = system: MCF7; assay: Growth inhibition of human MCF7 cells assessed as cell growth at 10 uM by sulforhodamine B assay; details: read-out: Activity
[49] = system: OVCAR-3; assay: Growth inhibition of human OVCAR3 cells assessed as cell growth at 10 uM by sulforhodamine B assay; details: read-out: Activity

For `C/C=C(/C)C(=O)O[C@@H]1CC(C)(C)C[C@H]2C3=CC[C@@H]4[C@@]5(C)CC[C@H](O)C(C)(C)[C@@H]5CC[C@@]4(C)[C@]3(C)CC[C@@]12C(=O)O` [Reduced Lantadene A], the inhibition of growth at 10 µM [1] was 58.6%, the growth at 10 µM [2] was -54.2% and the growth at 10 µM [3] was 35.9%. The growth at 10 µM [4] was 49.7%, the growth at 10 µM [5] was 41.8% and the growth at 10 µM [6] was 35.1%. For the same compound, the growth at 10 µM [7] was 55.8%, the “growth inhibition (GI)” value [8] was “Active” and the inhibition of growth at 10 µM [9] was 73.9%. The growth at 10 µM [10] was 53.2%, the growth at 10 µM [11] was 5.77% and the growth at 10 µM [12] was 33.7%. For the same compound, the growth at 10 µM [13] was 28.7%, the growth at 10 µM [14] was 41.4% and the growth at 10 µM [15] was 22.2%. It also gave a growth at 10 µM [16] of 35.1%, an inhibition of growth at 10 µM [17] of 77.8% and a growth at 10 µM [18] of -53%. It also gave a growth at 10 µM [19] of -31.8%, an inhibition of growth at 10 µM [20] of 42.3% and a growth at 10 µM [21] of 28.2%. For the same compound, the inhibition of growth at 10 µM [22] was 54.2%, the inhibition of growth at 10 µM [23] was 91.9% and the inhibition of growth at 10 µM [24] was 38.1%. The inhibition of growth at 10 µM [25] was 30.2%, the growth at 10 µM [26] was 24.3% and the “growth inhibition (GI)” value [27] was “Active”. It also gave an inhibition of growth at 10 µM [28] of 75.7%, an inhibition of growth at 10 µM [29] of 70.5% and a growth at 10 µM [30] of 42.1%. The growth at 10 µM [31] was -26%, the growth at 10 µM [32] was 8.12% and the “growth inhibition (GI)” value [33] was “Active”. For the same compound, the inhibition of growth at 10 µM [34] was 57.3%, the growth at 10 µM [35] was 35.2% and the growth at 10 µM [36] was 38.2%. For the same compound, the growth at 10 µM [37] was 66.1%, the inhibition of growth at 10 µM [38] was 36% and the inhibition of growth at 10 µM [39] was 39%. It also gave an inhibition of growth at 10 µM [40] of 78.9%, an inhibition of growth at 10 µM [41] of 64.9% and an inhibition of growth at 10 µM [42] of 71.8%. For the same compound, the growth at 10 µM [43] was 54.1%, the inhibition of growth at 10 µM [44] was 71.3% and the “growth inhibition (GI)” value [45] was “Active”. It also gave a growth at 10 µM [46] of 64.7%, an inhibition of growth at 10 µM [47] of 78.8% and a growth at 10 µM [48] of 61%. For the same compound, the growth at 10 µM [49] was 32%.
